Assay results: US4810818A, “Process for producing alpha-aspartyl-l-phenylalanine methyl ester having an improved solubility” (Toyo Soda Manufacturing Co., Ltd, priority 1986, dated 1989)
One block for each molecule: values may come before it. Peptide text beside a SMILES is read from it.

How the values were obtained:
[1] = Solubility: duration till 1 g of Aspartame crystals in 500 ml distilled water was completely dissolved as visually observed; assay type: physicochemical; conditions: 1 g in 500 ml distilled water, 20° C., magnetic stirrer 200 r.p.m.; for Solubility (min.) (duration till completely dissolved): Table 2, dried at 50° C. then 70° C.; for Solubility (min) (duration till completely dissolved): Table 1
Description: In the Examples, the solubility of Aspartame crystals was determined by measuring the duration till 1 g of Aspartame crystals which was added to 500 ml of distilled water at 20° C., followed by stirring (by a magnetic stirrer at 200 r.p.m.), was completely dissolved as visually observed.

[2] = Ratio of I type crystals by X-ray diffraction specific peaks with calibration curve; assay type: physicochemical; conditions: peaks at 2θ 4.4° (I) and 5.0° (II)
Description: Then, the ratio of the I type crystals was determined by comparing the strength ratio of each sample with the calibration curve.

[3] = Dispersibility and solubility in water (general statements); assay type: physicochemical; conditions: as compared with the II type crystals
[4] = as compared with the I type crystals; cited from earlier work
[5] = drying at a high temperature; part readily converted to a diketopiperadine derivative; cited from earlier work
[6] = cited from earlier work
[7] = Crystal form conversion (I type to II type) on drying; assay type: physicochemical; conditions: irrespective of the drying method
[8] = Table 2, dried at 50° C. then 70° C.

SMILES: COC(=O)[C@H](Cc1ccccc1)NC(=O)[C@@H](N)CC(=O)O [Example 2, α-L-aspartyl-L-phenylalanine methyl ester] (H-Asp-Phe-OMe)
Solubility (min.) (duration till completely dissolved) [1]: 5 to 6 min
Ratio of I type crystals (%) [2, 8]: 90%

SMILES: COC(=O)[C@H](Cc1ccccc1)NC(=O)[C@@H](N)CC(=O)O [Example 3, α-L-aspartyl-L-phenylalanine methyl ester] (H-Asp-Phe-OMe)
Solubility (min.) (duration till completely dissolved) [1]: 5 to 6 min
Ratio of I type crystals (%) [2, 8]: 100%

SMILES: COC(=O)[C@H](Cc1ccccc1)NC(=O)[C@@H](N)CC(=O)O [I type crystals, α-L-aspartyl-L-phenylalanine methyl ester] (H-Asp-Phe-OMe)
solubility, I type versus II type crystals [3]: far superior in the solubility to the II type crystals

SMILES: COC(=O)[C@H](Cc1ccccc1)NC(=O)[C@@H](N)CC(=O)O [Aspartame II type crystals, α-L-aspartyl-L-phenylalanine methyl ester] (H-Asp-Phe-OMe)
hygroscopicity [4]: low hygroscopicity
storage stability [4]: excellent storage stability

SMILES: COC(=O)[C@H](Cc1ccccc1)NC(=O)[C@@H](N)CC(=O)O [Example 1, α-L-aspartyl-L-phenylalanine methyl ester] (H-Asp-Phe-OMe)
Solubility (min) (duration till completely dissolved) [1]: 5 to 6 min
Ratio of I type crystals (%) ([2]; Table 1): 98%

SMILES: COC(=O)[C@H](Cc1ccccc1)NC(=O)[C@@H](N)CC(=O)O [Aspartame, α-L-aspartyl-L-phenylalanine methyl ester] (H-Asp-Phe-OMe)
stability at a high temperature [5]: not stable at a high temperature
dispersibility and solubility in water [6]: poor dispersibility and solubility in water
water content till which the I type crystal form is maintained [7]: about 15 % by weight

SMILES: COC(=O)[C@H](Cc1ccccc1)NC(=O)[C@@H](N)CC(=O)O [Comparative Example 1, α-L-aspartyl-L-phenylalanine methyl ester] (H-Asp-Phe-OMe)
Solubility (min) (duration till completely dissolved) [1]: 13 to 14 min
Ratio of I type crystals (%) ([2]; Table 1): 25%

Second part, the molecule after the results:

Solubility (min.) (duration till completely dissolved) [1]: 4 to 5 min
Ratio of I type crystals (%) [2, 8]: 98%
SMILES: COC(=O)[C@H](Cc1ccccc1)NC(=O)[C@@H](N)CC(=O)O [Example 4, α-L-aspartyl-L-phenylalanine methyl ester] (H-Asp-Phe-OMe)

Solubility (min.) (duration till completely dissolved) [1]: 13 to 14 min
Ratio of I type crystals (%) [2, 8]: 60%
SMILES: COC(=O)[C@H](Cc1ccccc1)NC(=O)[C@@H](N)CC(=O)O [compound 2, α-L-aspartyl-L-phenylalanine methyl ester] (H-Asp-Phe-OMe)

Solubility (min.) (duration till completely dissolved) [1]: 4 to 5 min
Ratio of I type crystals (%) [2, 8]: 100%
SMILES: COC(=O)[C@H](Cc1ccccc1)NC(=O)[C@@H](N)CC(=O)O [Example 5, α-L-aspartyl-L-phenylalanine methyl ester] (H-Asp-Phe-OMe)

Solubility (min.) (duration till completely dissolved) [1]: 14 to 15 min
Ratio of I type crystals (%) [2, 8]: 64%
SMILES: COC(=O)[C@H](Cc1ccccc1)NC(=O)[C@@H](N)CC(=O)O [compound 4, α-L-aspartyl-L-phenylalanine methyl ester] (H-Asp-Phe-OMe)

Solubility (min.) (duration till completely dissolved) [1]: 15 to 16 min
Ratio of I type crystals (%) [2, 8]: 51%
SMILES: COC(=O)[C@H](Cc1ccccc1)NC(=O)[C@@H](N)CC(=O)O [compound 3, α-L-aspartyl-L-phenylalanine methyl ester] (H-Asp-Phe-OMe)

Solubility (min.) (duration till completely dissolved) [1]: 7 to 8 min
Ratio of I type crystals (%) [2, 8]: 78%
SMILES: COC(=O)[C@H](Cc1ccccc1)NC(=O)[C@@H](N)CC(=O)O [compound 5, α-L-aspartyl-L-phenylalanine methyl ester] (H-Asp-Phe-OMe)
